Laboratory results taken from the supplement of paper PMC3621838.
± gives the standard deviation of the averaged measurements.

Tested on: HEK293 NF-kB-luciferase reporter cells
Assay: NF-kB luciferase reporter activity, robust Z-score vs plate median (robust Z-score (log luminescence)); higher = stronger NF-kB reporter activation
Settings: TNF treatment time 8.5 h, transfection time 72 h
Protocol: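 Primary screen of an Ambion Pre-miR miRNA mimic library (miRBase v8.0, 1.6 pmol/well, 384-well, duplicate) reverse-transfected into HEK293 cells stably expressing a 5x NF-kB firefly luciferase reporter. After 72 h the cells were treated with vehicle or TNF (40 ng/mL) for 8.5 h and luminescence was read (BriteLite). Raw luminescence was log-transformed and converted to a robust Z-score per plate: (x - plate median)/plate MAD. Sequence given is the mature miRNA strand of the double-stranded mimic.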

| Sequence | NF-kB luciferase reporter activity (TNF 0 ng/mL) | NF-kB luciferase reporter activity (TNF 40 ng/mL) |
| --- | --- | --- |
| CAAAGUGCCUCCCUUUAGAGUGU | 0.645 ± 0.51 | 0.811 ± 0.028 |
| CAACGGAAUCCCAAAAGCAGCU | 0.539 ± 0.19 | 1.2 ± 0.21 |
| CACCCGUAGAACCGACCUUGCG | -0.634 ± 0.41 | 0.175 ± 0.09 |
| CACUCAGCCUUGAGGGCACUUUC | -0.36 ± 0.51 | 1.02 ± 0.045 |
| CAGCAGCAAUUCAUGUUUUGAA | 1.16 ± 0.43 | 0.65 ± 0.09 |
| CAGCAGCACACUGUGGUUUGU | 0.765 ± 0.17 | 0.0663 ± 0.052 |
| CAGUGCAAUAGUAUUGUCAAAGC | 0.753 ± 0.32 | 0.85 ± 0.028 |
| CAGUGCAAUGAUGAAAGGGCAU | 1.21 ± 0.24 | 1.237 ± 0.0041 |
| CAUCCCUUGCAUGGUGGAGGGU | 0.67 ± 0.24 | 0.53 ± 0.0024 |
| CAUCUGGAGGUAAGAAGCACUUU | 0.889 ± 0.59 | -1.17 ± 0.072 |
| CAUCUUACCGGACAGUGCUGGA | -1.28 ± 0.79 | -0.895 ± 0.12 |
| CCACACCGUAUCUGACACUUU | -0.604 ± 0.17 | 0.0155 ± 0.04 |
| CCACUGCCCCAGGUGCUGCUGG | 0.831 ± 0.013 | -0.0587 ± 0.18 |
| CCCAGAUAAUGGCACUCUCAA | -0.57 ± 0.39 | -0.306 ± 0.12 |
| CCCAGUGUUUAGACUAUCUGUUC | -0.547 ± 0.91 | -0.613 ± 0.27 |
| CCUAGUAGGUGUCCAGUAAGUGU | -0.0662 ± 0.93 | 0.432 ± 0.025 |
| CCUCUAGAUGGAAGCACUGUCU | -0.0988 ± 0.27 | 0.749 ± 0.033 |
| CCUCUGGGCCCUUCCUCCAG | 2.88 ± 0.89 | -0.776 ± 0.1 |

| Sequence | NF-kB luciferase reporter activity (TNF 0 ng/mL) | NF-kB luciferase reporter activity (TNF 40 ng/mL) |
| --- | --- | --- |
| CGAAUGUUGCUCGGUGAACCCCU | -1.7 ± 0.2 | -2.17 ± 0.28 |
| CGCAUCCCCUAGGGCAUUGGUGU | -0.887 ± 0.054 | -0.479 ± 0.1 |
| CGGGUGGAUCACGAUGCAAUUU | 0.731 ± 0.46 | -2.0207 ± 0.0002 |
| CUACAAAGGGAAGCACUUUCUC | -1.11 ± 0.64 | -1.63 ± 0.19 |
| CUCCAGAGGGAAGUACUUUCU | -1.38 ± 1.7 | -1.33 ± 0.13 |
| CUCCAGAGGGAUGCACUUUCU | -1.38 ± 0.64 | -1.09 ± 0.051 |
| CUCCUGACUCCAGGUCCUGUGU | 1.44 ± 0.61 | 1.21 ± 0.14 |
| CUCUAGAGGGAAGCACUUUCU | 0.466 ± 0.17 | 0.664 ± 0.074 |
| CUCUAGAGGGAAGCACUUUCUCU | 1.17 ± 0.88 | 0.571 ± 0.12 |
| CUCUAGAGGGAAGCGCUUUCUGUU | 1.69 ± 0.18 | 0.579 ± 0.019 |
| CUCUUGAGGGAAGCACUUUCUGUU | 1.14 ± 0.36 | 0.555 ± 0.059 |
| CUGACCUAUGAAUUGACAGCC | -0.152 ± 0.091 | -0.0202 ± 0.12 |
| CUGCAAAGGGAAGCCCUUUCU | -0.197 ± 1 | -0.78 ± 0.054 |
| CUGGACUUAGGGUCAGAAGGCC | 0.0764 ± 0.11 | 0.411 ± 0.022 |
| CUGGACUUGGAGUCAGAAGGCC | -1.02 ± 0.24 | -0.191 ± 0.11 |
| CUGGAUGGCUCCUCCAUGUCU | 0.547 ± 0.21 | -0.772 ± 0.095 |
| CUGGCCCUCUCUGCCCUUCCGU | 0.704 ± 0.42 | -0.112 ± 0.19 |
